Measured values reported in publication PMC9477730, “Structures and mechanism of the plant PIN-FORMED auxin transporter” (Nature, 2022).

How the values were obtained:
[1] = target: T1, PIN8 (Arabidopsis thaliana, UniProt Q9LFP6); assay: cryo-EM structure at […] Å (outward-open); apparent Kd by SSM electrophysiology competition with NPA binding current
T1 construct: full-length, tag-free; model residues 1–164 and 206–367, homodimer
T1 sequence (Q9LFP6 1-367): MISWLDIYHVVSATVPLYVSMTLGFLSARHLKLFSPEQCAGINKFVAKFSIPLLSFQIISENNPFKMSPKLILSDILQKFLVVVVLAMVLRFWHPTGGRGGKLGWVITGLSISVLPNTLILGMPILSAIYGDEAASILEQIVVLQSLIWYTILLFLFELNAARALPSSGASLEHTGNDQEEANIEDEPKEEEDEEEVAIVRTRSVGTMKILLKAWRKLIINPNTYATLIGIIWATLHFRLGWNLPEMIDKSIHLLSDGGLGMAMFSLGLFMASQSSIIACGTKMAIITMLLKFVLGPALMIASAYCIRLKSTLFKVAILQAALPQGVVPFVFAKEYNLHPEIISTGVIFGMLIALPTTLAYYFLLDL

[2] = target: T1, PIN8; assay: cryo-EM structure at […] Å (inward-open); Ki from SSM electrophysiology on proteoliposomes; format: biochemical
[3] = target: the molecule itself; assay: cryo-EM structure; purified tag-free PIN8 reconstituted in peptidisc; apo (2.9 Å), with 15 mM IAA (3.2 Å) and with 2 mM NPA (3.4 Å); C2 symmetry imposed, parallel C1 refinement showed no differences between the two monomers

## O=C(O)Cc1c[nH]c2ccccc12 [IAA, Indole-3-acetic acid]
[1]
  Kd: 39.9 µM

## O=C(O)c1ccccc1C(=O)Nc1cccc2ccccc12 [NPA, naphthylphthalamic acid]
[2]
  Ki: 1.9 µM

B1: Arabidopsis thaliana PIN8 (PIN-FORMED 8 auxin transporter) (natural protein, UniProt Q9LFP6 1-367, looked up)
chain: T1 sequence (Q9LFP6 1-367)
notes: PIN8, Arabidopsis thaliana, UniProt Q9LFP6; the PIN8 gene cloned in a p423_GAL1-based plasmid; final models include residues 1-164 and 206-367 of 367 residues total; the cytosolic loop 165-205 is in the protein but not visible in the maps; also called AtPIN8; apo-PIN8; source: S. cerevisiae strain DSY-5, purified (Ni-NTA, TEV cleavage, SEC); in peptidisc or in LMNG detergent
[3]
  stoichiometry N: 2
